Key:
MC4 [1] = biological target: T1, MC4 (Homo sapiens, UniProt P32245); test: Functional agonist assay in HEK 293 cells stably expressing melanocortin receptor (luciferase reporter / whole cell cAMP accumulation); format: cell-based; settings: for EC50: agonist potency, concentration giving half maximal stimulation; for % Rel. Eff.: relative efficacy compared to NDP-alpha-MSH defined as 100% agonist
T1 construct: expressed in transfected cells; host or cells: HEK 293
Excerpt: Functional cell based assays are developed to discriminate agonists and antagonists.
Agonist Assay: HEK 293 cells stably expressing a human melanocortin receptor (see e.g., Yang, et al., Mol-Endocrinol., 11(3): 274-80, 1997) are dissociated from tissue culture flasks using a trypsin/EDTA solution (0.25%; Life Technologies, Rockville, Md.). Cells are collected by centrifugation and resuspended in DMEM (Life Technologies, Rockville, Md.) supplemented with 1% L-glutamine and 0.5% fetal bovine serum. Cells are counted and diluted to 4.5×10^5/ml.
A compound of formula I is diluted in dimethylsulfoxide (DMSO) (3×10^−5 to 3×10^−10 M final concentrations) and 0.05 volume of compound solution is added to 0.95 volumes of cell suspension; the final DMSO concentration is 0.5%. After incubation at 37° C./5% CO2 for 5 hours, cells are lysed by addition of luciferin solution (50 mM Tris, 1 mM MgCl2, 0.2% Triton-X100, 5 mM DTT, 500 micromolar Coenzyme A, 150 micromolar ATP, and 440 micromolar luciferin) to quantify the activity of the reporter gene luciferase, an indirect measurement of intracellular cAMP production.
Luciferase activity is measured from the cell lysate using a Wallac Victor 2 luminometer. The amount of lumen production which results from a compound of formula I is compared to that amount of lumens produced in response to NDP-alpha-MSH, defined as a 100% agonist, to obtain the relative efficacy of a compound. The EC50 is defined as the compound concentration that results in half maximal stimulation, when compared to its own maximal level of stimulation.
In the agonist assay, compounds are prepared as 10 mM and NDP-aMSH (control) as 33.3 μM stock solutions in 100% DMSO. These are serially diluted in 100% DMSO. The compound plate is further diluted 1:200 in compound dilution buffer (HBSS-092, 1 mM Ascorbic Acid, 1 mM IBMX, 0.6% DMSO, 0.1% BSA). The final concentration range being 10 μM-100 pM for compound and 33.33 nM-0.3 pM for control in 0.5% DMSO. Transfer 20 μl from this plate into four PET 96-well plates (all assays are performed in duplicate for each receptor).
HEK 293 cells stably transfected with the MC3R and MC4R were grown in DMEM containing 10% FBS and 1% Antibiotic/Antimycotic Solution. On the day of the assay the cells were dislodged with enzyme free cell dissociation solution and resuspended in cell buffer (HBSS-092, 0.1% BSA, 10 mM HEPES) at 1×e6 cells/ml. Add 40 μl of cells/well to the PET 96-well plates containing 20 ul diluted compound and control. Incubate @ 37° C. in a waterbath for 20 minutes. Stop the assay by adding 50 μl Quench Buffer (50 mM Na Acetate, 0.25% Triton X-100).
Radioligand binding assays were run in SPA buffer (50 mM Sodium Acetate, 0.1% BSA). The beads, antibody and radioligand were diluted in SPA buffer to provide sufficient volume for each 96-well plate. To each quenched assay well was added 100 ul cocktail containing 33.33 ul of beads, 33.33 μl antibody and 33.33 μl ^125 I-cAMP. This was based on a final concentration of 6.3 mg/ml beads, 0.65% anti-goat antibody and 61 pM of ^125I-cAMP (containing 25000-30000 CPM) in a final assay volume of 210 μl. The plates were counted in a Wallac MicroBeta counter after a 12-hour incubation.
The data was converted to pmoles cAMP using a standard curve assayed under the same conditions. The data was analyzed using Activity Base software to generate agonist potencies (EC50) and percent relative efficacy data to NDP-aMSH.

MC4 [2] = biological target: T1, MC4; test: Radioligand binding assay: competitive inhibition of 125I-NDP-alpha-MSH binding to membranes of stably transfected HEK 293 cells; settings: 125I-NDP-alpha-MSH competition; Ki from IC50 by Cheng-Prusoff equation
Protocol: The radioligand binding assay is used to identify competitive inhibitors of ^125I-NDP-alpha-MSH binding to cloned human MCRs using membranes from stably transfected human embryonic kidney (HEK) 293 cells.
HEK 293 cells transfected with human or rat melanocortinin receptors are grown either as adherent monolayers or suspension culture. Monolayer cells are grown in roller bottle cultures at 37° C. and 5% CO2/air atmosphere in a 3:1 mixture of Dulbecco's modified Eagle medium (DMEM) and Ham's F12 containing 25 mM L-glucose, 100 units/ml penicillin G, 100 microgram/ml streptomyocin, 250 nanogram/ml amphoterin B, 300 microgram/ml genticin and supplemented with 5% fetal bovine serum. Monolayer cells are adapted to suspension culture (Berg et al., Biotechniques Vol. 14, No.6, 1993) and are grown in spinner or shaker flasks (37° C. and 7.5% CO2/air overlay) in a modified DME/F12 medium containing 0.1 mM CaCl2, 2% equine serum and 100 microgram/ml sodium heparin (to prevent cell-cell aggregation). Cells are harvested by centrifugation, washed in PBS, and pellets are stored frozen at −80° C. until membrane preparations.
The cell pellets are resuspended in 10 volumes of membrane preparation buffer (i.e., 1 g pellet to 10 ml buffer) having the following composition: 50 mM Tris pH 7.5 @ 4° C., 250 mM sucrose, 1 mM MgCl2, Complete® EDTA-free protease inhibitor tablet (Boehringer Mannheim), and 24 micrograms/ml DNase I (Sigma, St. Louis, Mo.). The cells are homogenized with a motor-driven dounce using 20 strokes, and the homogenate is centrifuged at 38,000×g at 4° C. for 40 minutes. […]
Solutions of a compound of formula I (300 picomolar to 30 micromolar) or unlabelled NDP-alpha-MSH (1 picomolar to 100 nanomolar) are added to 150 microliters of membrane binding buffer to yield final concentrations (listed in parantheses). […] The radioactivity is quantified in a Wallac Trilux Microplate Scintillation counter. […]

T1 sequence (P32245 whole entry): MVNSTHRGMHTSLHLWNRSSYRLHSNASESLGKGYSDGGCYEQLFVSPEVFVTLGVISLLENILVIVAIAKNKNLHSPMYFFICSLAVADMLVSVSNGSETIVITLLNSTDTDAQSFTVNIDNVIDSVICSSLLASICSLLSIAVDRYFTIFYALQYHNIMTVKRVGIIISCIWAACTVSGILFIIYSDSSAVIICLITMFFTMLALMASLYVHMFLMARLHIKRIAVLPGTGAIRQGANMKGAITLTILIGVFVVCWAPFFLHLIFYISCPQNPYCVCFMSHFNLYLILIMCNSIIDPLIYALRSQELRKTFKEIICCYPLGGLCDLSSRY

EC50 (MC4 [1]) [nM]	% Rel. Eff. (MC4 [1]) [%]	Ki (MC4 [2]) [nM]	SMILES
18.9	114	24.3	CN1CCC(Cc2ccccc2F)(N2CCN(C(=O)[C@@H](Cc3ccc(Cl)cc3)NC(=O)CC3NCc4ccccc43)CC2)CC1 (stereo partly drawn) [Example 4I]
99.8	124	28.8	CC(C)CC1(N2CCN(C(=O)[C@@H](Cc3ccc(Cl)cc3)NC(=O)CC3NCc4ccccc43)CC2)CCCC1 (stereo partly drawn) [Example 8I]
25.4	112	6.5	CN1CCC(CC2CCCCC2)(N2CCN(C(=O)[C@@H](Cc3ccc(Cl)cc3)NC(=O)CC3NCc4ccccc43)CC2)CC1 (stereo partly drawn) [Example 10I]

— patent US7314879B2, “Melanocortin receptor agonists” (Eli Lilly and Company, priority 2002, dated 2008)
